# Assay results taken from patent US20020013342A1, “Treatment of central nervous system disorders with selective estrogen receptor modulators” (priority 1997, published 2002).
# Counter-ions that a name gives are not always drawn.
# System: gene expression in the hippocampus
# Test: Differential mRNA display in hippocampi of ovariectomized rats after five weeks of daily treatment
# Assay type: in vivo, female Sprague-Dawley rats
# Conditions: 1 mg/kg daily subcutaneous, comparator estradiol benzoate 0.03 mg/kg
# Description: A commonly employed model of estrogen depletion is the ovariectomized adult rat. An experiment was conducted in ovariectomized rats using differential mRNA display to determine the similarities and/or differences between a representative compound of the present invention, 6-hydroxy-2-(4-methoxyphenyl)-3-[4-(2-piperidinoethoxy)phenoxy]-benzo[b]thiophene, and estrogen at affecting gene expression in various brain regions. Specifically, female Sprague-Dawley rats, 6 weeks of age, were ovariectomized by the vendor. Following one week of acclimation to the laboratory facility, daily subcutaneous injections of estradiol benzoate (0.03 mg/kg) or 6-hydroxy-2-(4-methoxyphenyl)-3-[4-(2-piperidinoethoxy)phenoxy]-benzo[b]thiophene (1 mg/kg), or vehicle (control) were initiated.
# After five weeks of daily treatment, animals were sacrificed and their brains removed and hippocampi collected by microdissection. The hippocampi were fast frozen in liquid nitrogen and stored at −70_C. Total RNA was prepared from pooled tissue from the appropriate treatment and control groups and reverse transcribed using a 3′ oligonucleotide primer which selected for specific mRNA (poly-A+) populations. Polymerase chain reactions (PCR) were carried out in a cocktail consisting of: random 5′ oligonucleotides (10 base-pairs in length; total of 150), reaction buffer, Taq polymerase, and a ^32PdTCP. […]
row,SMILES,mRNA display pattern in rat hippocampus compared with that observed for estrogen
1,"COc1ccc(-c2sc3cc(O)ccc3c2Oc2ccc(OCCN3CCCCC3)cc2)cc1 [Example 14, [6-Hydroxy-3-[4-[2-(1-piperidinyl)ethoxy]-phenoxy]-2-(4-methoxyphenyl)]benzo[b]thiophene]",parallel pattern of gene activation or inactivation

# System: not listed separately
# Test: HPLC/UV analysis of liver and cerebral cortex homogenates for parent drug, primary metabolite and glucuronide conjugates
# Assay type: in vivo, Female Fischer 344 rats
# Conditions: cerebral cortex, eight hours after dosing
# Description: A liver and cerebral cortex homogenate were analyzed by HPLC and UV detection at 315 nm to determine if the radioactivity in these tissues was actually due to the drug initially dosed, to the primary metabolite, 6-hydroxy-2-(4-hydroxyphenyl)-3-[4-(piperidinoethoxy)phenoxy]-benzo[b]thiophene, or there glucuronide conjugates. The cerebral cortex sample was obtained eight hours after dosing and the liver samples were collected at four and eight hours after dosing. The proteins in the homogenate were precipitated with acetonitrile and the supernate was evaporated to dryness. The residue was reconstituted in mobile phase and injected onto a SynChropak SCD-100 column with the initial mobile phase composed of […]. (v/v/v). The retention times of the peaks from the homogenate were compared with those obtained from authentic samples of 6-hydroxy-2-(4-methoxyphenyl)-3-[4-(piperidinoethoxy)phenoxy]benzo[b]thiophene and its metabolite, 6-hydroxy-2-(4-hydroxyphenyl)-3-[4-(piperidinoethoxy)phenoxy]benzo [b]-thiophene.
row,SMILES,peaks corresponding to the glucuronide conjugates in the HPLC chromatogram of the cerebral cortex homogenate
1,"COc1ccc(-c2sc3cc(O)ccc3c2Oc2ccc(OCCN3CCCCC3)cc2)cc1 [Example 15, [6-Hydroxy-3-[4-[2-(1-piperidinyl)ethoxy]-phenoxy]-2-(4-methoxyphenyl)]benzo[b]thiophene Hydrochloride Salt]",not observed
2,"Oc1ccc(-c2sc3cc(O)ccc3c2Oc2ccc(OCCN3CCCCC3)cc2)cc1 [Example 7, [6-Hydroxy-3-[4-[2-(1-piperidinyl)ethoxy]-phenoxy]-2-(4-hydroxyphenyl)]benzo[b]thiophene]",not observed

# Same assay, conditions: liver samples collected at four and eight hours after dosing
row,SMILES,peaks in the HPLC chromatogram of the liver homogenates
1,"COc1ccc(-c2sc3cc(O)ccc3c2Oc2ccc(OCCN3CCCCC3)cc2)cc1 [Example 15, [6-Hydroxy-3-[4-[2-(1-piperidinyl)ethoxy]-phenoxy]-2-(4-methoxyphenyl)]benzo[b]thiophene Hydrochloride Salt]",peaks whose retention times corresponded to the parent compound and its glucuronide conjugate

# System: not given
# Test: not given
# Conditions: not given
row,SMILES,melting point
1,"CCN(CC)CCOc1ccc(Oc2c(-c3ccc(O)cc3)sc3cc(O)ccc23)cc1 [Example 12, [6-Hydroxy-3-[4-[2-(1-N,N-diethylamino)ethoxy]phenoxy]-2-(4-hydroxyphenyl)]benzo[b]thiophene]",137 to 141 °C
2,"Oc1ccc(-c2sc3cc(O)ccc3c2Oc2ccc(OCCN3CCOCC3)cc2)cc1 (as salt: hydrochloride) [Example 13, [6-Hydroxy-3-[4-[2-(morpholino)ethoxy]-phenoxy]-2-(4-hydroxyphenyl)]benzo[b]thiophene Hydrochloride]",157 to 162 °C
3,"COc1ccc(-c2sc3cc(OC)ccc3c2Oc2ccc(OCCN3CCCC3)cc2)cc1 [Example 3, [6-Methoxy-3-[4-[2-(1-pyrolodinyl)ethoxy]-phenoxy]-2-(4-methoxyphenyl)]benzo[b]thiophene]",95 to 98 °C
4,"Oc1ccc(-c2sc3cc(O)ccc3c2Oc2ccc(OCCN3CCCCCC3)cc2)cc1 [Example 11, [6-Hydroxy-3-[4-[2-(1-hexamethyleneimino)ethoxy]phenoxy]-2-(4-hydroxyphenyl)]benzo[b]thiophene]",125 to 130 °C
5,"COc1ccc2c(Oc3ccc(OCCN4CCCCC4)cc3)c(-c3ccc(O)cc3)sc2c1 (as salt: hydrochloride) [Example 17, [6-methoxy-3-[4-[2-(1-piperidinyl)ethoxy]-phenoxy]-2-(4-hydroxyphenyl)]benzo[b]thiophene Hydrochloride]",215 to 217 °C
6,"COc1ccc2c(Oc3ccc(OCCN4CCCCC4)cc3)c(-c3ccc(O)cc3)sc2c1 [Example 16, [6-methoxy-3-[4-[2-(1-piperidinyl)ethoxy]phenoxy]-2-(4-hydroxyphenyl)]benzo[b]thiophene]",147 to 150 °C
7,"COc1ccc(-c2sc3cc(OC)ccc3c2Oc2ccc(OCCN3CCCCC3)cc2)cc1 (as salt: oxalate) [Example 1, [6-methoxy-3-[4-[2-(1-piperidinyl)ethoxy]-phenoxy]-2-(4-methoxyphenyl)]benzo[b]thiophene Oxalate Salt]",197 to 200 °C (dec.)
8,"COc1ccc(-c2sc3cc(OC)ccc3c2Oc2ccc(OCCN3CCOCC3)cc2)cc1 (as salt: hydrochloride) [Example 6, [6-Methoxy-3-[4-[2-(morpholino)ethoxy]-phenoxy]-2-(4-methoxyphenyl)]benzo[b]thiophene Hydrochloride]",208 to 211 °C
9,"COc1ccc(-c2sc3cc(OC)ccc3c2Oc2ccc(OCCN3CCCCCC3)cc2)cc1 (as salt: hydrochloride) [Example 4, [6-Methoxy-3-[4-[2-(1-hexamethyleneimino)ethoxy]phenoxy]-2-(4-methoxyphenyl)]benzo[b]thiophene Hydrochloride]",189 to 192 °C
10,"CCN(CC)CCOc1ccc(Oc2c(-c3ccc(OC)cc3)sc3cc(OC)ccc23)cc1 (as salt: hydrochloride) [Example 5, [6-Methoxy-3-[4-[2-(1-N,N-diethylamino)ethoxy]phenoxy]-2-(4-methoxyphenyl)]benzo[b]thiophene Hydrochloride]",196 to 198 °C
11,"COc1ccc(-c2sc3cc(OC)ccc3c2Oc2ccc(OCCN3CCCCC3)cc2)cc1 (as salt: hydrochloride) [Example 2, [6-methoxy-3-[4-[2-(1-piperidinyl)ethoxy]-phenoxy]-2-(4-methoxyphenyl)]benzo[b]thiophene hydrochloride salt]",216 to 220 °C
12,"Oc1ccc(-c2sc3cc(O)ccc3c2Oc2ccc(OCCN3CCCC3)cc2)cc1 [Example 10, [6-Hydroxy-3-[4-[2-(1-pyrolidinyl)ethoxy]-phenoxy]-2-(4-hydroxyphenyl)]benzo[b]thiophene]",99 to 113 °C

# System: not listed separately
# Test: Distribution of radioactivity among tissues after a single oral dose of 14C-labeled compound in the female F344 rat
# Assay type: in vivo, Female Fischer 344 rats
# Conditions: all tissues with the exception of the liver
# Description: Female Fischer 344 rats (approximately twelve weeks old) were given a single oral gavage dose of 5 mg/kg (30 mCi/kg) of ^14C-labeled 6-hydroxy-2-(4-methoxyphenyl)-3-[4-(piperidinoethoxy)phenoxy]benzo[b]thiophene hydrochloride in 50% PEG 300/50% water. Blood and tissues were collected from three rats at each time point: just prior to dosing and at 2, 4, 8, and 24 hours after dosing. At each time point, the animals were sacrificed, blood samples were collected and the heparinized blood was centrifuged and the plasma obtained. Following collection of the bloood sample in each case, the animals were perfused with 0.9% saline solution and the brain, pituitary, femurs, ovaries, uterus and liver were surgically removed and placed in separate containers. […]
# The radioactivity of each sample was determined by liquid scintillation spectrometry. Plasma was counted directly, while the other tissues were either homogenized, digested, or oxidized prior to liquid scintillation counting. […]
# Samples were oxidized on a Packard Model307 Oxidizer and the resulting ^14CO2 trapped for liquid scintillation counting. The radioactivity in each tissue sample was converted to nanogram equivalents per gram of tissue (specific activity=16.3 dpm/ng). The 0-24 hour area under the curve (AUC0-24 hr) was calculated for each sample.
row,SMILES,time after dosing at which peak levels of radioactive material were reached [h]
1,"COc1ccc(-c2sc3cc(O)ccc3c2Oc2ccc(OCCN3CCCCC3)cc2)cc1 [Example 15, [6-Hydroxy-3-[4-[2-(1-piperidinyl)ethoxy]-phenoxy]-2-(4-methoxyphenyl)]benzo[b]thiophene Hydrochloride Salt]",8

# Same assay, conditions: liver
row,SMILES,time after dosing at which peak levels of radioactive material were reached [h]
1,"COc1ccc(-c2sc3cc(O)ccc3c2Oc2ccc(OCCN3CCCCC3)cc2)cc1 [Example 15, [6-Hydroxy-3-[4-[2-(1-piperidinyl)ethoxy]-phenoxy]-2-(4-methoxyphenyl)]benzo[b]thiophene Hydrochloride Salt]",4
